Molecules are shown by their SMILES.

Series [1] has as its system HIV-1 clade C molecular clone IndieC1 (CA-SP1 processing). Conditions: HEK-293T transfected with IndieC1, increasing concentrations 0.1–5.0 μM, western blot. How it is done: (§1) Viral supernatants were pelleted and separated on SDS-PAGE followed by western blotting using HIV-IgG antibody.
(§2) 24 h post-transfection, the culture medium was replaced with fresh DMEM and incubated for another 2 h. MIs were maintained in the culture throughout transfection. […] The clarified supernatants were filtered (pore size 0.45 μm filter disc) to remove residual cellular contaminants. For determination of viral infectivity, the unconcentrated virus was used to infect TZM-bl cells.
(§3) To measure accumulation of CA-SP1, immunoblot analysis of virus-associated proteins was performed. The virus pellet was resuspended in radioimmunoprecipitation assay (RIPA) buffer (50 mM Tris-HCl pH 8.0, 150 mM sodium chloride, 1.0% NP-40, 0.5% sodium deoxycholate, 0.1% SDS) containing 1 × protease inhibitor cocktail (Roche, Germany). […] The proteins were visualized by enhanced chemiluminescence (Pierce, USA) and the bands were quantified using ImageJ software (http://imagej.nih.gov/ij/).
(In western blotting, separated proteins are transferred to a membrane and probed.)

In series [2] the test system is HIV-1 clade B molecular clone NL4-3 (CA-SP1 processing). The conditions noted are these: HEK-293T transfected with NL4-3, increasing concentrations 0.1–5.0 μM, western blot. Here is the method:
as §1, §2, §3

For series [3], the system named is HIV-1 clade C molecular clone ZM247 (CA-SP1 processing). Conditions: HEK-293T transfected with ZM247, increasing concentrations 0.1–5.0 μM, western blot. How it is done:
as §1, §2, §3

Series [4] can be described thus: Cytotoxicity assay (CellTitre-Blue) in HUT-R5. It is filed as cell-based. Conditions: human, HUT-R5 cells; HUT-R5, 4 days. How it is done: (§4) Cytotoxicity assays were performed using the CellTitre-Blue Cell Viability Assay kit (Promega, USA) as per manufacturer’s recommendations. HEK-293T and HUT-R5 cell lines were maintained in the presence of serial dilutions of MIs for 4 days and treated with CellTitre-Blue reagent for 4 h at 37 °C. The fluorescent signals were recorded at 530/25excitation and 590/35emission using BioTek microplate reader.

For series [5], the system named is HIV-1 clade C K3016 virus. Nature of the series: Antiviral assay, spreading HIV-1 infection in HUT-R5 T-cell line (p24 reduction). It counts as cell-based. Conditions: Human immunodeficiency virus 1, T-cell, 192 h; HUT-R5 cells infected with K3016, 8 days, HIV-1 p24 in supernatant; representative of two independent experiments. How it is done: HUT-R5 cells were infected with K3016 virus and cultured for eight days in the presence of serial dilutions of each compound. Antiviral activity was monitored by reduction in HIV-1 p24 levels in culture supernatants.
HUT-R5 cells were infected with normalized HIV-1 clade C K3016 virus stocks at 37 °C for 1 h. Cells were then maintained for 8 days in the presence of serial dilutions of MIs. After 8 days, the HIV-1 p24 concentration in the virus supernatants was measured to monitor virus replication.

Series [6] in a line: Cytotoxicity assay (CellTitre-Blue) in HEK-293T. It is filed as cell-based. Conditions: human, HEK-293T cells. Here is the method: as §4
The test system of series [7] is HIV-1 clade C molecular clone K3016 (CA-SP1 processing). It is filed as cell-based. The conditions noted are these: for activity (CA-SP1 accumulation): K3016, 10 nM; for accumulation of the CA-SP1 processing intermediate over a range of doses: K3016, 2–50 nM. Here is the method:
as §1, §2, §3

Broadly, the CC50 is the concentration giving 50% cytotoxicity. Lower therefore signals greater toxicity to the cells. One may read the IC50 as the point on the concentration scale where inhibition reaches its midpoint. Read a high IC50 as a need for much substance. Turning to `C=C(C)[C@@H]1CC[C@]2(C(=O)O)CC[C@]3(C)[C@H](CC[C@@H]4[C@@]5(C)CC[C@H](OC(=O)CC(C)(C)C(=O)O)C(C)(C)[C@@H]5CC[C@]43C)[C@@H]12` [BVM, 3-0-(3′-3′-dimethylsuccinyl) betulinic acid, reference compound], the “accumulation of p25 (CA-SP1)” value is listed as “resistant” in series [1]; “dose-dependent accumulation of p25” in series [2]; “resistant” in series [3]; “resistant” in series [7] (HEK-293T transfected with K3016, increasing concentrations 0.1–5.0 μM, western blot). The CC50 at 4 days is greater than 1000 nM in series [4] and greater than 5000 nM in series [6]. The IC50 in series [5] is greater than 1000 nM.
As to `C=C(C)C1CCC2(CCNCCCN3CCCC3)CCC3(C)C(CCC4C5(C)CCC(OC(=O)CC(C)(C)CC(=O)O)C(C)(C)C5CCC43C)C12` (stereo not shown) [Compound 7h], the CC50 at 4 days in series [4] and in series [6] was greater than 1000 nM each time. The molecule also gave an IC50 in series [5] of 11.3 nM.
As for `C=C(C)C1CCC2(CCNC3CCN(C)CC3)CCC3(C)C(CCC4C5(C)CCC(OC(=O)CC(C)(C)CC(=O)O)C(C)(C)C5CCC43C)C12` (stereo not shown) [Compound 7j], the CC50 at 4 days in series [4] and in series [6] was greater than 1000 nM throughout. In series [5], this molecule registered an IC50 of 5.9 nM.
`C=C(C)C1CCC2(CCNCCN(C)C)CCC3(C)C(CCC4C5(C)CCC(OC(=O)CC(C)(C)CC(=O)O)C(C)(C)C5CCC43C)C12` (stereo not shown) [Compound 7m] came in with a CC50 at 4 days in series [4] greater than 1000 nM. The IC50 in series [5] amounted to 1.4 nM. In series [6], this molecule came in with a CC50 at 4 days greater than 1000 nM. In series [7], the “activity (CA-SP1 accumulation)” value is listed as roughly 40% and the “accumulation of the CA-SP1 processing intermediate over a range of doses” value (“accumulation … over a range of doses” for short) is recorded as “dose-dependent accumulation”.
Consider `C=C(C)C1CCC2(CCNC3CCN(CC)CC3)CCC3(C)C(CCC4C5(C)CCC(OC(=O)CC(C)(C)CC(=O)O)C(C)(C)C5CCC43C)C12` (stereo not shown) [Compound 7r], for which, in series [4], the CC50 at 4 days is greater than 1000 nM. Also, half-maximal inhibition in series [5] (IC50) required 1.5 nM. This molecule also displayed a CC50 at 4 days in series [6] greater than 1000 nM. Also, in series [7], the “activity (CA-SP1 accumulation)” value was roughly 40% and the “accumulation … over a range of doses” value is on record as “dose-dependent accumulation”.
Regarding `C=C(C)C1CCC2(CCNC3CCN(CCO)CC3)CCC3(C)C(CCC4C5(C)CCC(OC(=O)CC(C)(C)CC(=O)O)C(C)(C)C5CCC43C)C12` (stereo not shown) [Compound 7s], the CC50 at 4 days in series [4] and in series [6] was greater than 1000 nM in each case. It took 1.3 nM to reach half-maximal inhibition in series [5] (IC50). Also, the “activity (CA-SP1 accumulation)” value in series [7] was roughly 40%. In series [7], the “accumulation … over a range of doses” value is recorded as “dose-dependent accumulation”.

(Values after PMC4893694, “Identification of potent maturation inhibitors against HIV-1 clade C” (Scientific Reports, 2016).)
